Measured values taken from the CheMixHub viscosity set.

Experiment: xn = mol fraction of the nth substance listed

BrC(Br)Br + COCCO
viscosity [mPa·s], 101.3 kPa
Settings	x1 = 0.097	x1 = 0.198	x1 = 0.297	x1 = 0.401	x1 = 0.499	x1 = 0.6	x1 = 0.697	x1 = 0.798	x1 = 0.9
298.15 K	1.922	2.097	2.22	2.27	2.245	2.183	2.094	2.003	1.932
303.15 K	1.719	1.872	1.984	2.03	2.014	1.972	1.909	1.842	1.794
308.15 K	1.549	1.68	1.774	1.825	1.817	1.792	1.748	1.702	1.676

CC(C)(C)N + COCCO
308.15 K, 101 kPa
Settings	viscosity [mPa·s]
x2 = 0.13	0.5293
x2 = 0.2516	0.6631
x2 = 0.3656	0.7913
x2 = 0.4727	0.9167
x2 = 0.5735	1.035
x2 = 0.6668	1.083
x2 = 0.7583	1.115
x2 = 0.8432	1.152
x2 = 0.9237	1.187

BrC(Br)Br + CS(C)=O
Settings	viscosity [mPa·s]
298 K, 101.3 kPa, x1 = 0.0899	2.155
298 K, 101.3 kPa, x1 = 0.1708	2.427
298 K, 101.3 kPa, x1 = 0.3448	2.816
298 K, 101.3 kPa, x1 = 0.4446	2.945
298 K, 101.3 kPa, x1 = 0.5453	2.944
298 K, 101.3 kPa, x1 = 0.6466	2.762
298 K, 101.3 kPa, x1 = 0.7553	2.544
298 K, 101.3 kPa, x1 = 0.8619	2.192
318 K, 101.33 kPa, x1 = 0.1216	1.568
318 K, 101.33 kPa, x1 = 0.2541	1.787
318 K, 101.33 kPa, x1 = 0.443	1.978
318 K, 101.33 kPa, x1 = 0.5441	1.982
318 K, 101.33 kPa, x1 = 0.5955	1.983
318 K, 101.33 kPa, x1 = 0.8193	1.716

C=Cc1ccccc1 + CS(C)=O
viscosity [mPa·s], 101.33 kPa
Settings	x1 = 0.1017	x1 = 0.2022	x1 = 0.3096	x1 = 0.3987	x1 = 0.501	x1 = 0.6007	x1 = 0.6968	x1 = 0.801	x1 = 0.896
298.15 K	1.642	1.475	1.326	1.237	1.139	1.058	0.982	0.887	0.802
303.15 K	1.482	1.343	1.191	1.112	1.044	0.976	0.91	0.827	0.749
308.15 K	1.335	1.204	1.083	1.014	0.957	0.899	0.837	0.763	0.7

CCCCCCCCO + CS(C)=O
101 kPa
Settings	viscosity [mPa·s]
303.15 K, x2 = 0.1888	4.267
303.15 K, x2 = 0.3612	3.296
303.15 K, x2 = 0.519	2.593
303.15 K, x2 = 0.6642	2.26
303.15 K, x2 = 0.7982	1.965
303.15 K, x2 = 0.9223	1.757
313 K, x2 = 0.1243	3.69
313 K, x2 = 0.2177	3.282
313 K, x2 = 0.4192	2.668
313 K, x2 = 0.5194	2.442
313 K, x2 = 0.6221	2.22
313 K, x2 = 0.714	2.034
313 K, x2 = 0.8145	1.894
313 K, x2 = 0.902	1.664

O=c1oc2ccccc2c(O)c1C(c1ccccc1)c1c(O)c2ccccc2oc1=O + CS(C)=O
viscosity [mPa·s], 100 kPa
Settings	x1 = 0.0007822	x1 = 0.001562	x1 = 0.002337	x1 = 0.003116	x1 = 0.003894	x1 = 0.004664
293.15 K	2.346	2.469	2.592	2.715	2.839	2.963
298.15 K	2.068	2.179	2.286	2.394	2.502	2.611
303.15 K	1.883	1.966	2.063	2.161	2.256	2.352
308.15 K	1.684	1.755	1.825	1.909	1.992	2.076
313.15 K	1.519	1.578	1.638	1.713	1.789	1.862

CCC(C)(C)OC + Cc1cccc(C)c1
viscosity [mPa·s], 100 kPa
Settings	x1 = 0.0521	x1 = 0.1462	x1 = 0.2667	x1 = 0.4165	x1 = 0.4774	x1 = 0.5331	x1 = 0.6068	x1 = 0.7371	x1 = 0.8642	x1 = 0.9512
293.15 K	0.603	0.584	0.563	0.539	0.53	0.521	0.509	0.487	0.464	0.448
303.15 K	0.542	0.531	0.518	0.499	0.489	0.48	0.468	0.447	0.426	0.417
313.15 K	0.484	0.47	0.455	0.439	0.433	0.427	0.419	0.404	0.386	0.375

BrC(Br)Br + Cc1ccccc1
viscosity [mPa·s], 101 kPa
Settings	x1 = 0.1032	x1 = 0.1993	x1 = 0.2989	x1 = 0.3999	x1 = 0.4985	x1 = 0.5956	x1 = 0.6977	x1 = 0.7959	x1 = 0.8985
298.15 K	0.6593	0.7557	0.8686	0.9945	1.136	1.287	1.449	1.622	1.801
303.15 K	0.6236	0.7133	0.817	0.936	1.068	1.207	1.358	1.519	1.688
308.15 K	0.5877	0.6722	0.7592	0.8765	1.001	1.131	1.273	1.426	1.583
313.15 K	0.5544	0.6324	0.7238	0.8262	0.939	1.061	1.194	1.335	1.483

CC(C)(C)N + Cc1ccccc1
303.15 K, 101 kPa
Settings	viscosity [mPa·s]
x2 = 0.1549	0.4385
x2 = 0.2226	0.4405
x2 = 0.3039	0.4431
x2 = 0.3981	0.4489
x2 = 0.522	0.458
x2 = 0.6221	0.4693
x2 = 0.7184	0.4824
x2 = 0.8751	0.5067

CCCCCCCCO + Cc1ccccc1
viscosity [mPa·s], 101 kPa
Settings	298.15 K	308.15 K
x2 = 0.0495	6.43	4.918
x2 = 0.1104	5.45	4.28
x2 = 0.1513	4.841	3.853
x2 = 0.1999	4.2	3.402
x2 = 0.2517	3.646	3.009
x2 = 0.2997	3.252	2.674
x2 = 0.356	2.717	2.317
x2 = 0.3998	2.395	2.048
x2 = 0.4506	2.092	1.825
x2 = 0.5001	1.84	1.637
x2 = 0.5513	1.598	1.42
x2 = 0.6014	1.404	1.272
x2 = 0.6495	1.244	1.119
x2 = 0.6997	1.098	1.015
x2 = 0.7569	0.96	0.87
x2 = 0.8012	0.859	0.779
x2 = 0.8527	0.769	0.699
x2 = 0.9	0.674	0.61
x2 = 0.954	0.612	0.554

BrC(Br)Br + ClC(Cl)(Cl)Cl
Settings	viscosity [mPa·s]
298 K, 101.3 kPa, x1 = 0.1194	0.965
298 K, 101.3 kPa, x1 = 0.2186	1.037
298 K, 101.3 kPa, x1 = 0.3128	1.115
298 K, 101.3 kPa, x1 = 0.4431	1.231
298 K, 101.3 kPa, x1 = 0.5248	1.308
298 K, 101.3 kPa, x1 = 0.6217	1.397
298 K, 101.3 kPa, x1 = 0.7153	1.477
298 K, 101.3 kPa, x1 = 0.8068	1.609
298 K, 101.3 kPa, x1 = 0.8986	1.753
318 K, 101.33 kPa, x1 = 0.1597	0.8215
318 K, 101.33 kPa, x1 = 0.3179	0.9131
318 K, 101.33 kPa, x1 = 0.5191	1.056
318 K, 101.33 kPa, x1 = 0.6651	1.164
318 K, 101.33 kPa, x1 = 0.8607	1.328

C=Cc1ccccc1 + ClC(Cl)Cl
viscosity [mPa·s], 101.33 kPa
Settings	x1 = 0.101	x1 = 0.2004	x1 = 0.3009	x1 = 0.4022	x1 = 0.5055	x1 = 0.5997	x1 = 0.705	x1 = 0.7962	x1 = 0.9
298.15 K	0.5838	0.6109	0.6357	0.6615	0.6849	0.7054	0.7267	0.7443	0.7286
303.15 K	0.5575	0.5816	0.6033	0.628	0.6463	0.6686	0.6832	0.6993	0.6841
308.15 K	0.5324	0.5513	0.5742	0.5915	0.6109	0.6272	0.6447	0.6581	0.6521

BrC(Br)Br + ClCCCCCl
viscosity [mPa·s], 101 kPa
Settings	x1 = 0.0978	x1 = 0.197	x1 = 0.2974	x1 = 0.3963	x1 = 0.496	x1 = 0.5975	x1 = 0.6963	x1 = 0.7994	x1 = 0.8972
298.15 K	1.382	1.455	1.538	1.607	1.677	1.748	1.813	1.868	1.924
303.15 K	1.278	1.346	1.423	1.489	1.556	1.624	1.686	1.743	1.803
308.15 K	1.184	1.247	1.32	1.381	1.446	1.507	1.573	1.625	1.687
313.15 K	1.099	1.158	1.232	1.281	1.34	1.401	1.462	1.52	1.578

BrC(Br)Br + N#CCc1ccccc1
298.15 K, 101 kPa
Settings	viscosity [mPa·s]
x1 = 0.1271	1.937
x1 = 0.2393	2
x1 = 0.3546	2.087
x1 = 0.5011	2.112
x1 = 0.601	2.117
x1 = 0.6932	2.08
x1 = 0.7999	2.027
x1 = 0.889	1.966

BrC(Br)Br + N#Cc1ccccc1
298.15 K, 101 kPa
Settings	viscosity [mPa·s]
x1 = 0.1782	1.372
x1 = 0.3333	1.548
x1 = 0.4937	1.727
x1 = 0.6066	1.861
x1 = 0.7005	1.88
x1 = 0.8886	1.893

CC(C)(C)N + NC1CCCCC1
298.15 K, 101 kPa
Settings	viscosity [mPa·s]
x2 = 0.0757	0.569
x2 = 0.1557	0.7445
x2 = 0.2401	0.9554
x2 = 0.3296	1.173
x2 = 0.4244	1.407
x2 = 0.5252	1.612
x2 = 0.6324	1.785
x2 = 0.7468	1.894
x2 = 0.8691	1.915
